From patent publication US12662491B2 (Redona Therapeutics, Inc., priority 2020, dated 2026)

Biological target: T1, Zcchc11 enzyme (Homo sapiens, UniProt Q5TAX3)
T1 construct: made in house; host or cells: HEK293 cells (Zcchc11); E. coli Rosetta II (LIN28A)
T1 sequence (Q5TAX3 212-1420): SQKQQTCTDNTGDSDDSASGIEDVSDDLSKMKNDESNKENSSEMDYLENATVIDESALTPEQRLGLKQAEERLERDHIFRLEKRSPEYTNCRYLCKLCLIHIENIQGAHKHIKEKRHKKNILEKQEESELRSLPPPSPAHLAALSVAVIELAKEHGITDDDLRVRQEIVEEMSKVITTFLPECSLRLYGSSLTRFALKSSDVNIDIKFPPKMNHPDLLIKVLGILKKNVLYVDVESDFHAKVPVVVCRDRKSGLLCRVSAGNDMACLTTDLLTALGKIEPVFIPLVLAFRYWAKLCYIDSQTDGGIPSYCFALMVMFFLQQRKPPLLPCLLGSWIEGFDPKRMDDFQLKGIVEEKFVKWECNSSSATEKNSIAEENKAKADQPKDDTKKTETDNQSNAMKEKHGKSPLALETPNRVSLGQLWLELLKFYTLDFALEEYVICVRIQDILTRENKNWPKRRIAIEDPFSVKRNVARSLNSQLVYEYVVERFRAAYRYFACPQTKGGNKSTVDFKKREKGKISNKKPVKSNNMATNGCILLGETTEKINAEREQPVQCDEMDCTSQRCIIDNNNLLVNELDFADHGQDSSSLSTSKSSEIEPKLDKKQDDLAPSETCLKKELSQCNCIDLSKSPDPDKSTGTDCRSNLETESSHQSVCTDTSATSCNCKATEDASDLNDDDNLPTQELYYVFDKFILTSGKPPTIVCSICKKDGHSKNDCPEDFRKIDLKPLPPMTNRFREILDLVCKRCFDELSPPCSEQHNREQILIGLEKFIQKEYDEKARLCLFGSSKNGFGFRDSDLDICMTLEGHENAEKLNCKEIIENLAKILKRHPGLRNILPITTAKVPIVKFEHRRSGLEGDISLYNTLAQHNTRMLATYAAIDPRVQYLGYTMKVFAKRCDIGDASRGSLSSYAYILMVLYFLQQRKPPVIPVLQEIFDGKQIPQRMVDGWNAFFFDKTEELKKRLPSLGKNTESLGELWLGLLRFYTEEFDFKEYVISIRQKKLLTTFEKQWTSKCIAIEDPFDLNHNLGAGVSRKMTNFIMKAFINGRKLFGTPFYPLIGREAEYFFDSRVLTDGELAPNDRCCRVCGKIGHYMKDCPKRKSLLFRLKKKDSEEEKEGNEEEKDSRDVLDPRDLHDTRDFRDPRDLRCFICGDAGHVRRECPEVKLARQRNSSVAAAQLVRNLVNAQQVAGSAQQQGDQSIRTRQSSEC
Assay: TUTase assay (Zcchc11 assay, Lin28a-dependent polyuridylation of pre-let-7)
Type: biochemical
Settings: LIN28A 10 nM, Zcchc11 0.2 nM, 5′-fluorescein pre-let-7 miRNA 2 nM, UTP 5 uM, room temperature, 30 minutes pre-incubation; read-out: Potency Lin28a-dep Z11 IC50
Procedure, shortened: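 Polyuridylation measured as fluorescein loss when a rhodamine-labelled A20 probe anneals to U-tails added to fluorescein pre-let-7 (2 nM). Reaction: truncated Zcchc11 0.2 nM, E. coli-made LIN28A 10 nM, UTP 5 uM, HEPES pH 7.3, room temperature. Initial rates fitted to four-parameter IC50.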

Row | IC50 | SMILES
1 | ≤ 1000 nM | O=C(O)c1cn(-c2cnc(OCCO)cn2)c2cc(N3CCC[C@@H]3COc3ncccc3Cl)c(Cl)cc2c1=O [Example 45, 6-chloro-7-[(2R)-2-[[(3-chloropyridin-2-yl)oxy]methyl]pyrrolidin-1-yl]-1-[5-(2-hydroxyethoxy)pyrazin-2-yl]-4-oxoquinoline-3-carboxylic acid]
2 | ≤ 1000 nM | CN(C)CCOc1cnc(-n2cc(C(=O)O)c(=O)c3cc(F)c(N4CCC[C@@H]4COc4ncccc4Cl)cc32)cn1 [Example 16, (R)-7-(2-(((3-chloropyridin-2-yl)oxy)methyl)pyrrolidin-1-yl)-1-(5-(2-(dimethylamino)ethoxy)pyrazin-2-yl)-6-fluoro-4-oxo-1,4-dihydroquinoline-3-carboxylic acid]

Same assay, conditions: Lin28a-dependent Zcchc11 (Z11) TUTase activity; read-out: Potency Lin28a-dep Z11 IC50

Row | IC50 | SMILES
3 | ≤ 1000 nM | Cc1cccnc1OC[C@H]1CCCN1c1cc2c(cc1F)c(=O)c(C(=O)O)cn2-c1ccc(O)cc1 [Compound 119, (R)-6-fluoro-1-(4-hydroxy-phenyl)-7-(2-(((3-methylpyridin-2-yl)oxy)methyl)pyrrolidin-1-yl)-4-oxo-1,4-dihydro-quinoline-3-carboxylic acid]
4 | ≤ 1000 nM | COCCn1cc(-n2cc(C(=O)O)c(=O)c3cc(C#N)c(N4CCC[C@@H]4COc4ncccc4Cl)cc32)cn1 [Compound 242, 7-[(2R)-2-[[(3-chloropyridin-2-yl)oxy]methyl]pyrrolidin-1-yl]-6-cyano-1-[1-(2-methoxyethyl)pyrazol-4-yl]-4-oxoquinoline-3-carboxylic acid]
5 | 1000 to 10000 nM | COc1ccc(Cl)c(OCC23CC(CN2c2cc4c(cc2Cl)c(=O)c(C(=O)O)cn4-c2ccc(N)nc2)C3)n1 [Compound 176, 1-(6-aminopyridin-3-yl)-6-chloro-7-(1-[[(3-chloro-6-methoxy-pyridin-2-yl)oxy]methyl]-2-azabicyclo [2.1.1]hexan-2-yl)-4-oxoquinoline-3-carboxylic acid]

Further lines, the molecule ahead of its results:

Row | SMILES | IC50
6 | CN(C)C1CN(c2ccc(-n3cc(C(=O)O)c(=O)c4cc(Cl)c(N5CCC[C@@H]5COc5nc(O)ccc5Cl)cc43)cn2)C1 [Compound 331, 6-Chloro-7-[(2R)-2-[[(3-chloro-6-hydroxy-pyridin-2-yl)oxy]methyl]pyrrolidin-1-yl]-1-[6-[3-(dimethyl-amino)azetidin-1-yl]pyridin-3-yl]-4-oxoquinoline-3-carboxylic acid] | ≤ 1000 nM
7 | O=C(O)c1cn(-c2ccccc2)c2cc(N3CCC[C@@H]3COc3ncccc3F)c(F)cc2c1=O [Compound 98, (R)-6-fluoro-7-(2-(((3-fluoropyridin-2-yl)oxy)methyl)pyrrolidin-1-yl)-4-oxo-1-phenyl-1,4-dihydro-quinoline-3-carboxylic acid] | ≤ 1000 nM
8 | O=C(O)c1cn(-c2ccc(O)cc2F)c2cc(N3CCC[C@@H]3COc3cnccn3)c(F)cc2c1=O [Compound 89, (R)-6-fluoro-1-(2-fluoro-4-hydroxy-phenyl)-4-oxo-7-(2-((pyrazin-2-yloxy)methyl)pyrrolidin-1-yl)-1,4-dihydro-quinoline-3-carboxylic acid] | 10000 to 50000 nM

Same assay, conditions: Lin28a-dependent Zcchc11 (Z11) TUTase assay; read-out: Potency Lin28a-dep Z11 IC50

Row | IC50 | SMILES
9 | 1000 to 10000 nM | Nc1cc(Cn2cc(C(=O)O)c(=O)c3cc(Cl)c(N4CCC[C@@H]4COc4ncccc4Cl)cc32)ccn1 [Example 589, (R)-1-((2-aminopyridin-4-yl)methyl)-6-chloro-7-(2-(((3-chloropyridin-2-yl)oxy)methyl)pyrrolidin-1-yl)-4-oxo-1,4-dihydroquinoline-3-carboxylic acid]
10 | ≤ 1000 nM | COCCNc1ccc(-n2cc(C(=O)O)c(=O)c3cc(C#N)c(N4CCC[C@@H]4COc4ncccc4Cl)cc32)cn1 [Example 539, (R)-7-(2-(((3-chloropyridin-2-yl)oxy)methyl)pyrrolidin-1-yl)-6-cyano-1-(6-((2-methoxyethyl)amino)pyridin-3-yl)-4-oxo-1,4-dihydroquinoline-3-carboxylic acid]
11 | ≤ 1000 nM | CN(C)C1CN(c2ccc(-n3cc(C(=O)O)c(=O)c4cc(F)c(N5CCC[C@@]5(C)COc5ncccc5Cl)nc43)cn2)C1 [Example 630, (S)-7-(2-(((3-chloropyridin-2-yl)oxy)methyl)-2-methylpyrrolidin-1-yl)-1-(6-(3-(dimethylamino)azetidin-1-yl)pyridin-3-yl)-6-fluoro-4-oxo-1,4-dihydro-1,8-naphthyridine-3-carboxylic acid]
12 | 1000 to 10000 nM | CS(=O)(=O)NC1CCC(n2cc(C(=O)O)c(=O)c3cc(F)c(N4CCC[C@@H]4COc4ccccn4)cc32)CC1 (stereo partly drawn) [Example 360, (R)-6-fluoro-1-(4-(methyl-sulfonamido)cyclo-hexyl)-4-oxo-7-(2-((pyridin-2-yloxy)methyl)pyrrolidin-1-yl)-1,4-dihydro-quinoline-3-carboxylic acid]

Second part, the molecule before the results:

Row | SMILES | IC50
13 | Cc1ccc(F)cc1-n1cc(C(=O)O)c(=O)c2cc(F)c(N3CCC[C@@H]3COc3ccccn3)cc21 [Example 393, (R)-6-fluoro-1-(5-fluoro-2-methylphenyl)-4-oxo-7-(2-((pyridin-2-yloxy)methyl)pyrrolidin-1-yl)-1,4-dihydroquinoline-3-carboxylic acid] | 1000 to 10000 nM
14 | COc1ccnc(OC[C@H]2C[C@H]3C[C@H]3N2c2cc3c(cc2Cl)c(=O)c(C(=O)O)cn3-c2ccc(N3CC(N(C)C)C3)nc2)c1F [Example 685, 6-chloro-1-(6-(3-(dimethylamino)azetidin-1-yl)pyridin-3-yl)-7-((1R,3R,5R)-3-(((3-fluoro-4-methoxypyridin-2-yl)oxy)methyl)-2-azabicyclo[3.1.0]hexan-2-yl)-4-oxo-1,4-dihydroquinoline-3-carboxylic acid] | ≤ 1000 nM
15 | O=C(O)c1cn(-c2cc(F)cc(F)c2)c2cc(N3CCC[C@@H]3COc3ccccn3)c(F)cc2c1=O [Example 388, (R)-1-(3,5-difluorophenyl)-6-fluoro-4-oxo-7-(2-((pyridin-2-yloxy)methyl)pyrrolidin-1-yl)-1,4-dihydroquinoline-3-carboxylic acid] | 1000 to 10000 nM
16 | COCCNC1CN(c2ccc(-n3cc(C(=O)O)c(=O)c4cc(Cl)c(N5CCC[C@@H]5COc5ncccc5Cl)cc43)cn2)C1 [Example 494, (R)-6-chloro-7-(2-(((3-chloropyridin-2-yl)oxy)methyl)pyrrolidin-1-yl)-1-(6-(3-((2-methoxyethyl)amino)azetidin-1-yl)pyridin-3-yl)-4-oxo-1,4-dihydroquinoline-3-carboxylic acid] | ≤ 1000 nM
17 | Cc1cccc(F)c1-n1cc(C(=O)O)c(=O)c2cc(F)c(N3CCC[C@@H]3COc3ccccn3)cc21 [Example 390, (R)-6-fluoro-1-(2-fluoro-6-methylphenyl)-4-oxo-7-(2-((pyridin-2-yloxy)methyl)pyrrolidin-1-yl)-1,4-dihydroquinoline-3-carboxylic acid] | 1000 to 10000 nM
18 | O=C(O)c1cn(-c2ccc3[nH]ncc3n2)c2cc(N3CCC[C@@H]3COc3ncccc3Cl)c(Cl)cc2c1=O [Example 486, 6-chloro-7-[(2R)-2-{[(3-chloropyridin-2-yl)oxy]methyl}pyrrolidin-1-yl]-4-oxo-1-{1H-pyrazolo[4,3-b]pyridin-5-yl}-1,4-dihydroquinoline-3-carboxylic acid] | ≤ 1000 nM
19 | O=C(O)c1cn(-c2ccc(C3(O)CNC3)nc2)c2cc(N3CCC[C@@H]3COc3ncccc3Cl)c(Cl)cc2c1=O [Example 611, (R)-6-chloro-7-(2-(((3-chloropyridin-2-yl)oxy)methyl)pyrrolidin-1-yl)-1-(6-(3-hydroxyazetidin-3-yl)pyridin-3-yl)-4-oxo-1,4-dihydroquinoline-3-carboxylic acid] | ≤ 1000 nM
20 | CNCCN1CCC(n2cc(C(=O)O)c(=O)c3cc(Cl)c(N4CCC[C@@H]4COc4ncccc4Cl)cc32)CC1 [Example 502, (R)-6-chloro-7-(2-(((3-chloropyridin-2-yl)oxy)methyl)pyrrolidin-1-yl)-1-(1-(2-(methyl-amino)ethyl)piperidin-4-yl)-4-oxo-1,4-dihydroquinoline-3-carboxylic acid] | 1000 to 10000 nM
